Laboratory results published in US9018207B2, “Method of treatment or prophylaxis” (Spinifex Pharmaceuticals Pty Ltd, priority 2004, dated 2015).
“Also recorded” adds a separate entry of the source.

Legend:
Format in all cases: in vivo, Sprague-Dawley (SD) rats
[1] = system: STZ-diabetic rats; assay: Relief of tactile allodynia (von Frey paw withdrawal thresholds) in the hindpaws of STZ-diabetic rats (model of PDN); settings: for relief of tactile allodynia (summary in discussion): STZ-diabetic rat model of PDN; for relief of tactile allodynia (summary in discussion) / onset of anti-allodynia (summary in discussion): single i.p. bolus doses; for reversal of tactile allodynia in the hindpaws: i.p., higher doses tested
Protocol: Adult male SD rats were anaesthetized in a manner similar to that described above, to facilitate insertion of a polyethylene cannula (previously filled with 0.1 ml of sterile saline) into the right common jugular vein. Jugular vein cannulae were tested for correct placement by the withdrawal of a small amount of blood. Diabetes was induced following an acute i.v. injection of streptozotocin (STZ) (80 mg/kg) in 0.1 M citrate buffer (pH 4.5) into the jugular vein. Diabetes was confirmed by monitoring the water intake and blood glucose concentration in individual rats. Blood glucose was monitored using either (Glucostix™) or a Precision QID™ test kit.
Consistent with previous studies in the literature (Calcutt et al., 1996, Pain. 68(2-3):293-9), rats that drank more than 100 mL of water per day by 10 days post-STZ injection, were classified as diabetic, and only rats with blood glucose concentrations exceeding 15 mM were included in the subsequent experiments. By comparison, the water intake of control non-diabetic rats was approximately 20 mL per day and blood glucose concentrations were in the range 5-6 mM, consistent with the literature (Calcutt et al., 1996, supra).
Whilst under light anaesthesia with CO2/O2 (50:50%), CCI-rats or STZ-diabetic rats received a single bolus injection (200 μL) of one AT2 receptor antagonist (PD123,319 or L-159,686) by the intravenous (i.v.) or the intraperitoneal (i.p.) route, using a 250 μL Hamilton syringe. The test compounds were administered to CCI-rats at 14 days after CCI-surgery and to STZ-diabetic rats at approximately 8-wks after the induction of diabetes with STZ. Relief of tactile (mechanical) allodynia, the defining symptom of neuropathic pain, by each of the test agents, PD123,319 or L-159,686, was quantified using calibrated von Frey filaments as described below.
Tactile allodynia was quantified using calibrated von Frey filaments. Rats were placed in wire mesh testing cages (20 cm×20 cm×20 cm) and allowed to acclimatise for approximately […] Von Frey filaments were used to determine the lowest mechanical threshold required for a brisk paw withdrawal reflex. Briefly, the filament that produced the lowest force was applied to the plantar surface of the hindpaw until the filament buckled slightly. Absence of a response after 5 s prompted use of the next filament in an ascending sequence. Filaments used produced a buckling weight of 2, 4, 6, 8, 10, 12, 14, 16, 18 and 20 g and these were calibrated prior to each testing session.
For CCI-rats, baseline von Frey paw withdrawal thresholds (PWTs) were quantified prior to CCI-surgery, and at 14 days post-surgery immediately prior to drug administration. For STZ-diabetic rats, baseline von Frey PWT values were determined prior to the induction of diabetes with STZ and at 1-2 weekly intervals thereafter for 8 weeks to document the temporal development of tactile allodynia. For all rats, baseline PWTs were the mean of three readings taken, 5 min apart before drug administration and were determined separately for each hindpaw. After administration of each test compound, von Frey PWTs were determined at the following post-dosing times: 0.08, 0.25, 0.5, 0.75, 1, 1.25, 1.5, 2 and 3 h.
Paw withdrawal thresholds (PWTs; g) were plotted against time to construct response versus time curves for each of the two test compounds (PD123,319 and L-159,686) for each dose and dosing route.
Whilst adult male SD rats were anaesthetized with 3% isoflurane: 97% oxygen, a short polyethylene cannula (0.4 mm ID, 0.8 mm OD) was inserted into the jugular vein to facilitate the intravenous (i.v) administration of a single dose of STZ (75 mg/kg). After removal of the i.v. cannula, the jugular vein was tied off, the wound was closed and topical bupivacaine was applied. Rats received benzylpenicillin (60 mg s.c.) to prevent infection and were kept warm during surgical recovery. […]

[2] = system: rats with a chronic constriction injury (CCI) of the sciatic nerve; assay: Antinociception (von Frey paw withdrawal thresholds) in the contralateral hindpaw of CCI-rats
Protocol: (§1) Adult male Sprague-Dawley (SD) rats were anaesthetized with Zoletil 100® (0.09 ml/200 g) and Xylazil-20™ (0.1 mL/200 g) administered by intraperitoneal (i.p.) injection, and a chronic constriction injury (CCI) of the sciatic nerve was produced according to the method of Bennett and Xie (1988). Briefly, the left common sciatic nerve was exposed at mid-thigh level by blunt dissection through the biceps femoris. Proximal to the trifurcation, 10 mm of nerve was freed of adhering tissue and four loose ligatures (3.0 silk) were tied around the sciatic nerve 1 mm apart). The incision was closed in layers. After surgery, rats received benzylpenicillin (60 mg s.c.) to prevent infection and were kept warm during surgical recovery. Rats were housed singly for 10-14 days prior to AT2 receptor antagonist or vehicle (normal saline) administration. After CCI-surgery, rats were inspected daily with regard to posture of the affected hindpaw, exploring behavior, body weight and water intake, and any signs of autotomy. Whilst under light anaesthesia with CO2/O2 (50:50%), CCI-rats or STZ-diabetic rats received a single bolus injection (200 μL) of one AT2 receptor antagonist (PD123,319 or L-159,686) by the intravenous (i.v.) or the intraperitoneal (i.p.) route, using a 250 μL Hamilton syringe. The test compounds were administered to CCI-rats at 14 days after CCI-surgery and to STZ-diabetic rats at approximately 8-wks after the induction of diabetes with STZ. Relief of tactile (mechanical) allodynia, the defining symptom of neuropathic pain, by each of the test agents, PD123,319 or L-159,686, was quantified using calibrated von Frey filaments as described below. Tactile allodynia was quantified using calibrated von Frey filaments. Rats were placed in wire mesh testing cages (20 cm×20 cm×20 cm) and allowed to acclimatise for approximately […] Von Frey filaments were used to determine the lowest mechanical threshold required for a brisk paw withdrawal reflex. Briefly, the filament that produced the lowest force was applied to the plantar surface of the hindpaw until the filament buckled slightly. Absence of a response after 5 s prompted use of the next filament in an ascending sequence. Filaments used produced a buckling weight of 2, 4, 6, 8, 10, 12, 14, 16, 18 and 20 g and these were calibrated prior to each testing session. […] For CCI-rats, baseline von Frey paw withdrawal thresholds (PWTs) were quantified prior to CCI-surgery, and at 14 days post-surgery immediately prior to drug administration. For STZ-diabetic rats, baseline von Frey PWT values were determined prior to the induction of diabetes with STZ and at 1-2 weekly intervals thereafter for 8 weeks to document the temporal development of tactile allodynia. For all rats, baseline PWTs were the mean of three readings taken, 5 min apart before drug administration and were determined separately for each hindpaw. After administration of each test compound, von Frey PWTs were determined at the following post-dosing times: 0.08, 0.25, 0.5, 0.75, 1, 1.25, 1.5, 2 and 3 h. Paw withdrawal thresholds (PWTs; g) were plotted against time to construct response versus time curves for each of the two test compounds (PD123,319 and L-159,686) for each dose and dosing route. Whilst adult male SD rats were anaesthetized with 3% isoflurane: 97% oxygen, four loose ligatures were tied around one sciatic nerve to produce a unilateral chronic constriction injury (CCI) according to the method of Bennett and Xie (1988, Pain 33: 87-107). […]

[3] = system: rats with a chronic constriction injury (CCI) of the sciatic nerve; assay: Relief of tactile allodynia (von Frey paw withdrawal thresholds) in the ipsilateral (injured) hindpaw of CCI-rats; settings: for doses required to produce significant relief of tactile allodynia in CCI-rats compared with STZ-diabetic rats: CCI-rats vs STZ-diabetic rats
Protocol: as §1, with “87-107). Briefly, the left common sciatic nerve was exposed at mid-thigh level by blunt dissection through the biceps femoris. Proximal to the trifurcation, 10 mm of nerve was freed of adhering tissue and four loose ligatures (3.0 silk) were tied around the sciatic nerve 1 mm apart). The incision was closed in layers. After surgery, rats received benzylpenicillin (60 mg s.c.) to prevent infection and were kept warm during surgical recovery.” for “87-107).”

[4] = system: rats with a chronic constriction injury (CCI) of the sciatic nerve; assay: as above; settings: oral bolus 30 μg/kg vs same dose i.p.
[5] = STZ-diabetic rats, sodium salt, i.p. bolus 0.0003 to 3 mg/kg
[6] = CCI-rats, sodium salt, i.p. bolus 0.003 to 10 mg/kg
[7] = STZ-diabetic rats, i.p. bolus 1.0 to 100 ng/kg
[8] = CCI-rats, i.p. bolus 3 to 30 μg/kg

## CCc1nc2ccc(N(Cc3ccccc3)C(=O)c3cccs3)cc2c(=O)n1Cc1ccc(-c2ccccc2-c2nn[nH]n2)cc1.[Na] [L-161,638 (sodium salt), thiophene-2-carboxylic Acid benzyl-{2-ethyl-4-oxo-3-[2′-(2H-tetrazol-5yl)-biphenyl-4-ylmethyl]-3,4-dihydro-quinazolin-6-yl}-amide Sodium Salt]
[1]
  relief of tactile allodynia (summary in discussion): potent relief of tactile allodynia
[1]; STZ-diabetic rats
  reversal of tactile allodynia in the hindpaws: fully reversed
  onset of anti-allodynia (summary in discussion): relatively rapid onset
[1]; STZ-diabetic rats, sodium salt, i.p. 3 mg/kg dose
  duration of action: > 3 h
[1]; [5]
  onset of relief of tactile allodynia: rapid onset
  relief of tactile allodynia: dose-dependent relief of tactile allodynia
  time of peak effects post-dosing: 0.25 to 0.75 h
[1]; STZ-diabetic rats, sodium salt, i.p. bolus 0.0003 to 3 mg/kg, listed as L-161,638, Sodium Salt
  relief of tactile allodynia: relief of tactile allodynia
[1]; STZ-diabetic rats, sodium salt, i.p. doses in the range 0.0003-0.03 μg/kg
  duration of action: 3 h
[2]; sodium salt, i.p. doses up to 10 mg/kg
  antinociception in the contralateral hindpaw: insignificant antinociception
[3]
  doses required to produce significant relief of tactile allodynia in CCI-rats compared with STZ-diabetic rats: considerably larger doses
[3]; [6]
  anti-allodynia (relief of tactile allodynia) in the ipsilateral hindpaw: dose-dependent relief of tactile allodynia
  durations of action: 1.5 to 3 h
  onset of anti-allodynia in the ipsilateral hindpaw: rapid onset
  time of peak responses post-dosing: 0.5 to 0.75 h
[3]; CCI-rats, sodium salt, i.p. bolus 0.003 to 10 mg/kg, listed as L-161,638, Sodium Salt
  anti-allodynia (relief of tactile allodynia) in the ipsilateral hindpaw: dose-dependent anti-allodynia

## COc1ccc2c(c1OCc1ccccc1)C[C@@H](C(=O)O)N(C(=O)C(c1ccccc1)c1ccccc1)C2 [PD-126,055]
[1]
  relief of tactile allodynia (summary in discussion): potent relief of tactile allodynia
[1]; [7]
  duration of action: 2 to 3 h
  onset of action post-dosing: 0.5 h
  relief of tactile allodynia: significant relief of tactile allodynia
  time of peak anti-allodynia post-dosing: 0.75 to 1.0 h
[1]; STZ-diabetic rats
  reversal of tactile allodynia in the hindpaws: fully reversed
  onset of anti-allodynia (summary in discussion): relatively rapid onset
[2]; i.p. doses up to 30 μg/kg
  antinociception in the contralateral hindpaw: insignificant antinociception
[3]
  doses required to produce significant relief of tactile allodynia in CCI-rats compared with STZ-diabetic rats: considerably larger doses
[3]; CCI-rats, 30 μg/kg, irrespective of dosing route (oral or i.p.)
  duration of action: ~3 h
[3]; [8]
  anti-allodynia (relief of tactile allodynia) in the ipsilateral hindpaw: dose-dependent onset of anti-allodynia; also recorded: dose-dependent relief of tactile allodynia
  onset of anti-allodynia in the ipsilateral hindpaw: rapid
  time of peak responses post-dosing: 0.75 to 1 h
[3]; CCI-rats, i.p., doses larger than 3 μg/kg
  duration of action: > 3 h
[3]; CCI-rats, i.p., lowest dose tested (3 μg/kg)
  duration of action: 1.5 h
[4]
  extent and duration of the anti-allodynic response, oral compared with i.p. route: similar

## Cc1cc(Cn2cnc3c2C[C@@H](C(=O)O)N(C(=O)C(c2ccccc2)c2ccccc2)C3)ccc1N(C)C [PD-123,319]
[1]; STZ-diabetic rats (8-wks after STZ), single bolus i.p. 0.3-3.0 mg/kg, n=4
  relief of tactile allodynia: dose-dependent relief of tactile allodynia
[2]; single bolus i.p. 1-10 mg/kg, n=3-4
  antinociception in the contralateral hindpaw: antinociception in the contralateral hindpaw
[2]; single bolus i.v. 0.1-0.3 mg/kg, n=2
  antinociception in the contralateral hindpaw: antinociception in the contralateral hindpaw
[3]; CCI-rats, single bolus i.p. 1-10 mg/kg, n=3-4
  relief of tactile allodynia in the ipsilateral (injured) hindpaw: dose-dependent (A) relief of tactile allodynia
[3]; CCI-rats, single bolus i.v. 0.1-0.3 mg/kg, n=2
  relief of tactile allodynia in the ipsilateral (injured) hindpaw: dose-dependent (A) relief of tactile allodynia
